Measured values published in patent US20200315984A1 (priority 2013, published 2020).
Where two headings read alike, the source gives them in different places.

How the values were obtained:
[1] = Extrapolated absorption data for dual-film dosage; type: in vivo; details: human, plasma, dual-layered film; for AUC: local pH 3.5 and 5.5, read-out: Naloxone AUC; for Cmax: local pH 3.5 and 5.5, read-out: Naloxone Cmax
Procedure: A dual-film dosage is prepared, with the first film layer having a local pH of about 3.5 and containing an antagonist therein, and the second film layer having a local pH of about 5.5 and containing an agonist therein. In this dual-film dosage, the first film layer (having the antagonist) is a fast-dissolving film, while the second film layer (having the agonist) is a moderate dissolving film.

[2] = cited from earlier work
[3] = other: sublingual or buccal film
[4] = other: sublingual/buccal film dissolved in the oral cavity

With `C=CCN1CC[C@]23c4c5ccc(O)c4O[C@H]2C(=O)CC[C@@]3(O)[C@H]1C5` [naloxone] the AUC [1, 3] was 0.0905 to 0.724 ng·h/mL, the Cmax [1, 3] was 0.0325 to 0.26 ng/mL and the AUC [1, 4] was 0.0906 to 0.724 ng·h/mL. The Cmax [1, 4] was 0.0325 to 0.26 ng/mL and the pKa [2] was “about 7.94”.
